Tests used:
Assay type in all cases: cell-based, human
[1] = system: HUVEC cells; test: WST-8 cell viability assay, HUVEC; conditions: 17 h, SQAP 10 and 20 µM
Description: HUVEC and A549 cells were seeded into a 96-well culture plate (2 × 10^4 cells/well). The following day, cells were treated with SQAP or vehicle in a medium containing 1% FBS and VEGF (50 ng/mL) for 17 h (HUVEC) or fibronectin (10 μg/mL) for 46 h (A549). Cell viability was measured using Cell Count Reagent SF (Nacalai Tesque, Kyoto, Japan) following the manufacturer’s instructions. Briefly, 1/10 volume of the WST-8 solution was added to each well, and the plates were incubated at 37 °C for 1 h. Then, cell viability was determined colorimetrically by measuring OD450 using a microplate reader on a Wallac ARVO 5X microplate reader (Perkin Elmer, Waltham, MA, USA).
control SQAP 10 µM SQAP 20 µM
Livecellswere measured with SF reagent under similarconditionsas describedin thewound healing
assayinFig.5. (A)HUVEC and (B)A549 cells.
(also on this page, place not known: Cell viability (%) Cell viability (%) Live cells were similar conditions as described in the wound assay in Fig. 5. (A) HUVEC (B) A549)

[2] = system: paxillin phosphorylation at Y118 in HUVEC; test: Paxillin phosphorylation in HUVEC, Western blotting; conditions: total paxillin unaltered
Source text: Furthermore, we looked at FAK signaling pathway to validate our results. Paxillin binds to FAK 919–938 residues which is a sequence contained within the region where SQAP is predicted to bind. Binding between paxillin and FAK results in paxillin phosphorylation at Y118[35][36]. Thus, we examined paxillin phosphorylation. […] Additionally, we studied Akt phosphorylation at S473 on account of FAK is a known factor in control of Akt activity. We observed that Akt phosphorylation was diminished when treated with SQAP or SQMG for 21 h (see Supplementary Fig. S3).
Cells were harvested and solubilized in RIPA buffer (20 mM Tris-HCl, pH 7.5, 1% Sodium deoxycholate, 150 mM NaCl, 5 mM EDTA, 1% Triton X-100, 0.1% SDS, 0.1%, 1 mM PMSF, 1 mM vanadate and 1 μg/mL leupeptin). Protein quantification was determined using the DC protein assay kit (Bio-Rad, Hercules, CA, USA). A total of 15 μg of each protein sample were separated by SDS–PAGE gels and blotted onto polyvinylidene difluoride membranes (Merck, Kenilworth, NJ, US). After blocking for 1 h with Blocking-One (Nacalai Tesque, Kyoto, Japan), proteins were detected by incubating the membranes with the primary antibody at 4 °C overnight (anti-Y397 2:2000, anti-Y925 5:2000 and anti-FAK 0.5:2000) followed by incubation with horseradish peroxidase-conjugated secondary antibodies at room temperature for 1 h (anti-mouse 0.5:2000 and anti-rabbit 0.4:2000).

[3] = system: VEGF mRNA expression in A549 cells; test: VEGF mRNA expression, quantitative real-time RT-PCR, A549; conditions: A549, 6 h, increased concentration of SQAP
Description: (§1) Figure 5 Effect of SQAP on FAK phosphorylation. The level of FAK phosphorylated at Y397 and Y925 was evaluated by Western blotting. (A) HUVEC cells were serum-depleted for 20 h before treatment with SQAP or vehicle for 30 min followed by treatment with or without VEGF (50 ng/mL) for 30 min. (B) HUVEC cells were cultured as stated in section A and then treated with SQAP, SQMG or SQP. (C) A549 cells were serum-deprived for 48 h before pretreatment with SQAP or vehicle followed by treatment with or without fibronectin (10 μg/mL) for 30 min. (D) A549 cells were cultured as stated in section C and then treated with SQAP, SQMG or SQP. (E–F) HUVEC and A549 cells were treated with SQAP for 6 h before adding an RNA stabilization reagent and prepared for Quantitative real-time RT-PCR.
(§2) Total RNA was prepared using an RNeasy Mini Kit (QIAGEN Inc., Hilden, Germany) according to the manufacturer’s instructions and then reverse-transcribed to cDNA with Transcriptor First Strand cDNA Synthesis Kit (Roche Applied Science, Mnnheim, Germany). Measurement of gene expression by quantitative analysis was performed using the LightCycler system (Roche Applied Science). Quantitative real-time RT-PCR analysis of β-actin, TSP-1 and VEGF-A expression were performed using the LightCycler FastStart DNA MasterPLUS SYBR Green I system (Roche Applied Science). […]

[4] = system: VEGF mRNA expression in HUVEC cells; test: VEGF mRNA expression, quantitative real-time RT-PCR, HUVEC; conditions: 6 h SQAP treatment
Description: as §1, §2

`CCCCCCCCCCCCCCCCCC(=O)OCCCO[C@H]1O[C@H](CS(=O)(=O)O)[C@@H](O)[C@H](O)[C@H]1O` [SQAP, sulfoquynovosylacylpropanediol] was tested, and the “cytotoxicity (WST-8 cell viability)” value [1] was “noncytotoxic”, the “paxillin phosphorylation at Y118” value [2] was “inhibition of paxillin-phosphorylation” and the “VEGF production level (mRNA, RT-PCR)” value [3] was “mild production decrease”. For the same compound, the “VEGF production level (mRNA, RT-PCR)” value [4] was “reduced”.
